This passage reports IC50 results from patent publication US6747061B2, “N-substituted dithiocarbamates for the treatment of biological disorders” (AtheroGenics, Inc., priority 2000, dated 2004).

This test has as its system 15-LOX-2. Kind of test: 15-Lipoxygenase Form-2 assay: immunoblot of TNF-α and IL-4 co-induced 15-LOX-2 expression in NHBE cells. The test is classed as cell-based. As to conditions: Homo sapiens, TNF-α 10 ng/ml + IL-4 20 ng/ml, 16-20 hours. As for the experimental part: The 15-Lipoxygenase Form-2 (15-LOX-2) Assay is an immunoblot assay to measure tumor necrosis factor alpha (TNF-α) and interleukin-4 (IL-4) co-induced expression of 15-LOX-2 in Normal Human Epithelial Cells.
Normal human bronchial epithelial cells (NHBE) were purchased from Clonetics. They were cultured in BEGM (Clonetics) media without retinoic acid. In a typical experiment, the cells were seeded in 24-well plates. Media was changed to BEGM without retinoic acid (RA) and hydrocortisone (HC) 24 hour before dosing. Cells were then exposed to TNF-α (10 ng/ml) and IL-4 (20 ng/ml) purchased from Boehringer Mannheim in the absence or presence of compounds in fresh BEGM without RA and HC for 16-20 hours at 37° C. To establish a dose curve for each compound, three concentrations in 2 fold increments were used. All compounds were dissolved in DMSO and the final concentration of DMSO was 0.2%.
Cells were washed with cold 1×PBS three times and then lysed by 100 μl of Tris-Glycine SDS sample buffer (NOVEX). Lysates were fractionated by 4-20% gradient SDS-PAGE (NOVEX), transferred onto nitrocellulose filters (MSI) and incubated with the filters in blocking buffer (5% Blotto in 1×Tris buffered saline (TBS)+0.05% Tween 20) for 1 hour with gentle shaking. […]
A general note: In western blotting, separated proteins are transferred to a membrane and probed.

For orientation: IC50 means the concentration that gives 50% inhibition.

On to `COC(=O)CCCSC(=S)NCC1CCCO1` (stereo not shown) [NDE, 4-(tetrahydrofuran-2-ylmethylthiocarbamoylsulfanyl)-butyric acid methyl ester], for which the half-maximal inhibitory concentration (IC50) stood at 4.5 µM.
